Results taken from ChEMBL document CHEMBL1201862, “PubChem BioAssay data set” (2004).
The source made the active and inactive calls.

Columns and labels:
[1] = inhibitors of intracellular T. cruzi replication, confirmation, NIH3T3 host cells, beta-gal luminescence (AID 2044); type: functional, cell-based;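 further: intracellular parasites grown in NIH/3T3 mouse fibroblasts as host cells; luminescent beta-galactosidase reporter signal from transgenic T. cruzi replicating inside host cells; inhibitors lower the luminescence signal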
[2] = cytotoxicity toward NIH3T3 fibroblasts, dose response, counter-screen, cell-based, ATP luminescence, mouse fibroblasts (AID 2010); type: functional;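 further: cells exposed to compound for about 90 hours before reading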
[3] = P. falciparum late gametocyte killing, dose response, luminescence (AID 1117278); type: functional, cell-based;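 further: gametocytes exposed to compound for 24 hours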
[4] = Jurkat T cell cytotoxicity, dose response, cytotoxicity control for P. falciparum gametocyte viability project, luminescence (AID 1117277); type: functional, cell-based;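 further: potency reflects loss of cellular ATP meaning fewer viable cells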
[5] = molecular target: Paired box protein Pax-8 (Homo sapiens, UniProt Q06710); assay: inhibitors of PAX8-driven TPO luciferase reporter, dose response, RMG-I cells, cherry-pick (AID 687027); type: functional, cell-based;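 further: luciferase reporter driven by Pax8 target thyroperoxidase promoter measured by SteadyGlo luminescence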
Chain of Paired box protein Pax-8 (Q06710 whole entry): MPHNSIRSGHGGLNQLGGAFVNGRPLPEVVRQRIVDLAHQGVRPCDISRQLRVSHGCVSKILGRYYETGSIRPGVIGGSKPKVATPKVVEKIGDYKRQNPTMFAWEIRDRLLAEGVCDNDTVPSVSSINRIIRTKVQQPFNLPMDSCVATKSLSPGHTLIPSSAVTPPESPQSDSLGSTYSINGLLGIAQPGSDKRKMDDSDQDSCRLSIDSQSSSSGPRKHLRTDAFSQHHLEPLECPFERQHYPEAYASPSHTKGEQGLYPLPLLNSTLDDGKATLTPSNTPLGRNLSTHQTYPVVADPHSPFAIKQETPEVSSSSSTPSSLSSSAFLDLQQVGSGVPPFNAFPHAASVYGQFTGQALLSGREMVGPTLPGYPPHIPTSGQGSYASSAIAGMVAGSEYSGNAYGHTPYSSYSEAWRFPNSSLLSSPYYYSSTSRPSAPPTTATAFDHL

[6] = IGROV1 ovarian cancer cell cytotoxicity, dose response, PAX8 inhibitor project, plate reader, dry powder samples (AID 743043); type: functional, cell-based; conditions: IGROV-1
[7] = non-specific cell cytotoxicity, dose response, cytotoxicity control for PAX8 inhibitor project, plate reader, dry powder samples (AID 743021); type: functional, cell-based
[8] = cytotoxicity in OVCAR8 ovarian cancer cells, dose response, PAX8 project, cell-based, plate reader, dry powder samples (AID 743197); type: functional; conditions: OVCAR-8
[9] = HEp-2 cell cytotoxicity, dose response, cytotoxicity control for RSV inhibitor project, HTS (AID 2410); type: functional; conditions: human respiratory syncytial virus
[10] = microbe, parasite or virus in culture; type: functional; conditions: Mycobacterium tuberculosis
[11] = molecular target: Disintegrin and metalloproteinase domain-containing protein 17 (Homo sapiens, UniProt P78536); assay: exosite inhibitors of ADAM17, dose response, biochemical (AID 743260)
Chain of Disintegrin and metalloproteinase domain-containing protein 17 (P78536 whole entry, the tested form may be a part): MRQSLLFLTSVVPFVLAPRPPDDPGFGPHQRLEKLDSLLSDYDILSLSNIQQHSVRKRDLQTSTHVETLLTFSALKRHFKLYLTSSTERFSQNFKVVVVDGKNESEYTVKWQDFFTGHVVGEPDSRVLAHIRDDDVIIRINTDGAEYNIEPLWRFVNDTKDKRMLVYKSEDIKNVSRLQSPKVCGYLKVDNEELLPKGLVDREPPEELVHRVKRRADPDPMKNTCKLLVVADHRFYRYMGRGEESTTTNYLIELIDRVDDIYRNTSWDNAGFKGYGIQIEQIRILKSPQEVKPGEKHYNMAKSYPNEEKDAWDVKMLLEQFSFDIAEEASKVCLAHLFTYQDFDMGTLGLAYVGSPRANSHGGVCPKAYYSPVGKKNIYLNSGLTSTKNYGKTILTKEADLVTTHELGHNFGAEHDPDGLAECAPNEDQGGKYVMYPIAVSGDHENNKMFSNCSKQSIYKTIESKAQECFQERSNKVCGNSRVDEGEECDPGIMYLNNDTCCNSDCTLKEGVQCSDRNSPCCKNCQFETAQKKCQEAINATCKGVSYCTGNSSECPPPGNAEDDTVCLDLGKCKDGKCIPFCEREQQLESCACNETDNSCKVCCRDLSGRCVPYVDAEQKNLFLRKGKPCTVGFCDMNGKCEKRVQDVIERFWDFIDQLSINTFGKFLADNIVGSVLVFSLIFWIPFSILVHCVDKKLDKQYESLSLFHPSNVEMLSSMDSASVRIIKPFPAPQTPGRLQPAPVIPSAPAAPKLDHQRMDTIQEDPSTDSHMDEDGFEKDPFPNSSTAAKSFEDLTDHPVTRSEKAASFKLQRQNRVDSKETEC

[12] = ADAM10 protease inhibitors, dose response, selectivity assay for ADAM17 exosite inhibitor project, biochemical, FRET peptide substrate, recombinant human ADAM10 (AID 743259);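 further: ADAM10 enzyme cleaving a FRET peptide substrate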
[13] = A cytotoxicity screen of small molecule inhibitors of the PhoP region in Salmonella typhi identified in the primary screen. [Related pubchem assays: 1850, 1864, 1985 ]; type: functional
[14] = molecular target: Ephrin type-A receptor 4 (Mus musculus, UniProt Q03137); assay: inhibitors of EphA4 binding to KYL peptide, primary screen, biochemical, colorimetric, mouse EphA4 (AID 689); type: functional
Chain of Ephrin type-A receptor 4 (Q03137 whole entry): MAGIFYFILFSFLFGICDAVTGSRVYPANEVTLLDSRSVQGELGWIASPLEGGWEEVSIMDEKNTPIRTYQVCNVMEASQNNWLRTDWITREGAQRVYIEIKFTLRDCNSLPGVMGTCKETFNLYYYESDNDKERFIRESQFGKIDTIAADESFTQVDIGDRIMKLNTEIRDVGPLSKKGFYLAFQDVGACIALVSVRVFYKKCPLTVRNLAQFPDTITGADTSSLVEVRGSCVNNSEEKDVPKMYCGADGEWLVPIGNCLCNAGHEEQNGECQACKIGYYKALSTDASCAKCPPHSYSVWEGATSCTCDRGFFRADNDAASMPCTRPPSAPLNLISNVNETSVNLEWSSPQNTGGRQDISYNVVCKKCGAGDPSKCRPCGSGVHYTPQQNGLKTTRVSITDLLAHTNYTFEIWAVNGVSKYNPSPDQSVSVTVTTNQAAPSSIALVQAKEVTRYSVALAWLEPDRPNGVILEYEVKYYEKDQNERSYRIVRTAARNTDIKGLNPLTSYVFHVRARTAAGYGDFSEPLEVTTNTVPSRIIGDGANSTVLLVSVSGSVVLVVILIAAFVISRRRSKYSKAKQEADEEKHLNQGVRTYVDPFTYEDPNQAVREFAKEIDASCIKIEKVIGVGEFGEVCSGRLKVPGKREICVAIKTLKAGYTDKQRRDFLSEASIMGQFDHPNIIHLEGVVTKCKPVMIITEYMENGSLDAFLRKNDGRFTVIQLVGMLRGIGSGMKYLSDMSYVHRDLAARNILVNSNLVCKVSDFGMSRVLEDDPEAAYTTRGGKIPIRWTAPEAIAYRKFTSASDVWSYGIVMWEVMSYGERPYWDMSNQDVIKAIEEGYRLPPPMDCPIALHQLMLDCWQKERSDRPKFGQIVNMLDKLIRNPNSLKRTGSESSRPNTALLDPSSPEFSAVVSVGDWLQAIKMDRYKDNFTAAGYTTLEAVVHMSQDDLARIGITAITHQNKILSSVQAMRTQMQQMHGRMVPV

[15] = molecular target: T1, Heat shock factor protein 1 (Mus musculus, UniProt P38532); assay: inhibition of MG132-induced HSE-luciferase signal, confirmation, cell-based, NIH3T3, luminescence, dose retest (AID 2382); type: functional;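 further: NIH3T3 fibroblasts with HSF1-driven luciferase reporter stressed by proteasome inhibitor MG132; luminescence from HSF1-driven luciferase expression after 8 hours of MG132 stress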
T1 sequence (P38532 whole entry): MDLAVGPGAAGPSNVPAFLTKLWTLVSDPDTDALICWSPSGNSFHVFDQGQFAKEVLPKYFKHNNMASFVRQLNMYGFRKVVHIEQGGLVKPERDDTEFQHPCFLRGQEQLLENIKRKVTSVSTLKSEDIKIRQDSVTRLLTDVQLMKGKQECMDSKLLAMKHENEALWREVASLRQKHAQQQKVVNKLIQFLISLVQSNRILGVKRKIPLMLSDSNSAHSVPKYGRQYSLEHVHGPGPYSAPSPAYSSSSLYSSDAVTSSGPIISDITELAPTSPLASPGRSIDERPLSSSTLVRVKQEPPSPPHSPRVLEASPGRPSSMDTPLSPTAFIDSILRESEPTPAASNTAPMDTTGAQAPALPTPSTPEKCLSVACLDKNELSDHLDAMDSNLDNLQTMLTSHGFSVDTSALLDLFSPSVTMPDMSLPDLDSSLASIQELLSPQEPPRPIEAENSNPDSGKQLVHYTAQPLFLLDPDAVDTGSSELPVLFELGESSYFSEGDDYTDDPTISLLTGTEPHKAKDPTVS

[16] = THP-1 cell cytotoxicity, dose response, cytotoxicity control for non-replicating M. tuberculosis project (AID 489025); type: functional
[17] = cells; type: functional
[18] = system: CHO; assay: cytotoxicity in TLR9-MyD88 CHO cells, dose response, cytotoxicity control for TLR9-MyD88 binding inhibitor project, cell-based, luminescence (AID 588339); type: functional, hamster; conditions: Cricetulus griseus;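 further: CHO cells stably coexpressing TLR9 and MyD88 fusions from primary screen; compound exposure lasted 48 hours before viability readout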
[19] = molecular target: T2, Replicative DNA helicase DnaB (Mycobacterium tuberculosis, UniProt P9WMR3); assay: DnaB intein splicing inhibitors, dose response, biochemical, cell-free fluorescence (AID 449749); type: functional
T2 sequence (P9WMR3 whole entry): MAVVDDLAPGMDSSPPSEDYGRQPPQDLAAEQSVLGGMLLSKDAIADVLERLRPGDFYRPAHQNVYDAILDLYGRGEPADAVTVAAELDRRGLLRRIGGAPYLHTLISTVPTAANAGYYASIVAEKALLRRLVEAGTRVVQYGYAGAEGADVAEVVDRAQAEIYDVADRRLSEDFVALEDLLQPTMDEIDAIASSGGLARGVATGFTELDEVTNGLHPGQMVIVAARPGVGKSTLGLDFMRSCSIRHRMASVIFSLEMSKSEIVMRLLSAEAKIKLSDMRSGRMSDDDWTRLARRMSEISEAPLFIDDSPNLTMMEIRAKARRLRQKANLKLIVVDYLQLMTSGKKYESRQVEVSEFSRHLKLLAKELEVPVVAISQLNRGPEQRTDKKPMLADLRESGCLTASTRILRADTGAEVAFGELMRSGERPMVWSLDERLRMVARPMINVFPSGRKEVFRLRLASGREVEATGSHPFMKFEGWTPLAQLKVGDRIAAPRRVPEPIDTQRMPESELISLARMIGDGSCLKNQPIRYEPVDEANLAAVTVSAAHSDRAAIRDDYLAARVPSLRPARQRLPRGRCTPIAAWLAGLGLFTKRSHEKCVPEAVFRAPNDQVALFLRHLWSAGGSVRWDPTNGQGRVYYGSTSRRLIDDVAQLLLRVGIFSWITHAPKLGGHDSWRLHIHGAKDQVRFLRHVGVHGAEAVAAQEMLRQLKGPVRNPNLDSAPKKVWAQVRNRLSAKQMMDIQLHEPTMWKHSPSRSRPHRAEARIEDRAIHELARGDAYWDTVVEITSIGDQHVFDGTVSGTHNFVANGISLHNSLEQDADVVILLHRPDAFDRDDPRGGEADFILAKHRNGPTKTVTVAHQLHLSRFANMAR

[20] = molecular target: T3, Protein RecA (Mycobacterium tuberculosis, UniProt P9WHJ3); assay: Fluorescence Cell-Free Homogeneous Dose Retest to Identify Inhibitors of RecA-Intein Splicing Activity. [Related pubchem assays (depositor defined):AID2097, AID2223, AID489010, AID492950]; type: functional
T3 sequence (P9WHJ3 whole entry): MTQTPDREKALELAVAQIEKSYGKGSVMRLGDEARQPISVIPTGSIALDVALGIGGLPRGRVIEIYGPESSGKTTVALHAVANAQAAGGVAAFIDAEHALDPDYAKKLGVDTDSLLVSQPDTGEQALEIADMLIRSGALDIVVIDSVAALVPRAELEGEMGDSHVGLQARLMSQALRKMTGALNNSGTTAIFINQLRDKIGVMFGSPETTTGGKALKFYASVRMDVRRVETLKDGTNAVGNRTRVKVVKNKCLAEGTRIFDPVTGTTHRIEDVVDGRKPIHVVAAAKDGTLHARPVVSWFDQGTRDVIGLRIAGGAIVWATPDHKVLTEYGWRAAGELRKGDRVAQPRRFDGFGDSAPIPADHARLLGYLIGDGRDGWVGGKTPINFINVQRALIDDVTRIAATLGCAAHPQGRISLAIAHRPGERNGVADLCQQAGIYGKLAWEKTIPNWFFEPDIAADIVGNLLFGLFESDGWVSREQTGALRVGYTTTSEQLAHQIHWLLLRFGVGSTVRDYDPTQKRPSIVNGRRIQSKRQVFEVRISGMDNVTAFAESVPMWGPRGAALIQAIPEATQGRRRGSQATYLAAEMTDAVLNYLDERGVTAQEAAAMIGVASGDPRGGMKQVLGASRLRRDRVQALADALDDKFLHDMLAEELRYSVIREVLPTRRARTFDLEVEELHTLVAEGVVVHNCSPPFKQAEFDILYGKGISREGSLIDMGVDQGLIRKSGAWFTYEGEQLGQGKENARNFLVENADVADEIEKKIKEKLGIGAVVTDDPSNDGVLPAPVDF

[21] = molecular target: Beta Lactamase (Pseudomonas aeruginosa, UniProt Q932Y6); assay: beta-lactamase reporter inhibitor potency, dose response, artefact control for TLR9-MyD88 binding inhibitor project, BLA reporter cells, FRET fluorescence (AID 588341); type: cell-based;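 further: cell based assay in CHO-K1 cells stably expressing beta-lactamase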
Chain of Beta Lactamase (Q932Y6 whole entry): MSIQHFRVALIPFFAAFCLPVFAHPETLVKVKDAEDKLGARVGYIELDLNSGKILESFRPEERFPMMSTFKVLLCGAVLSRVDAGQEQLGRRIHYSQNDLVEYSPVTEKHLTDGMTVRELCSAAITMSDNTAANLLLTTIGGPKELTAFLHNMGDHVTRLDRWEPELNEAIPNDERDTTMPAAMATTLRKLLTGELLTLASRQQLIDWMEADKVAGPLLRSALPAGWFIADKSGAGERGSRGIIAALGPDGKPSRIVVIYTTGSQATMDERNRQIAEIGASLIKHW

With `COc1ccc(C(=O)C[n+]2cc(-c3ccc(OC)cc3)n3c2CCCC3)cc1` the EC50 [1] was 0.243 µM (active), the EC50 [2] was > 60 µM (not active) and the IC50 [3] was > 109 µM (inactive). For the same compound, the IC50 [4] was > 83.3 µM (inactive).

In the case of `C[C@@H]1CN([C@H](C)CO)C(=O)c2cc(NC(=O)Nc3ccc(C(F)(F)F)cc3)ccc2O[C@@H](C)CCCCO[C@H]1CN(C)Cc1ccc2c(c1)OCO2`, the AC50 [5] is reported as 7.63 µM (active), the AC50 [6] is reported as 26.7 µM (active) and the AC50 [7] is reported as 66.4 µM (active). The AC50 [8] was 31.6 µM (active).

For `CCOC(=O)c1sc(NC(=O)CN2C(=O)NC3(CC(C)CC(C)(C)C3)C2=O)cc1C` (stereo unspecified), the CC50 [9] was 14.9 µM (active), the EC50 [1] was 2.17 µM (active) and the CC50 [10] was 30.6 µM (active). The EC50 [2] was 9.25 µM (active), the IC50 [11] was > 69.5 µM (inactive) and the IC50 [12] was 10.6 µM (inactive).

For `CCCOc1ccc(C2=CSC3=NCCN23)cc1Cl`, the EC50 [13] was > 50 µM (active).

For `CSc1ccccc1/N=C/c1nc(-c2ccccc2)oc1O`, the IC50 [14] was 37.6 µM (active).

In the case of `CNS(=O)(=O)c1cccc(C(=O)OCc2cc(=O)oc3c(C)c(O)ccc23)c1`, the EC50 [13] is reported as > 50 µM (active).

In the case of `CCS(=O)(=O)c1ncc(Cl)c(C(=O)Nc2ccc(C)cc2)n1`, the EC50 [15] is reported as 5.18 µM (inconclusive), the EC50 [1] is reported as 2.31 µM (active) and the EC50 [2] is reported as 4.9 µM (active). The CC50 [16] was 21 µM (active), the IC50 [17] was 5.21 µM (active) and the IC50 [18] was 3.98 µM (active). The AC50 [19] was 5.56 µM (active), the EC50 [20] was 6.94 µM (active) and the IC50 [21] was 7.65 µM (active). The AC50 [5] was 17.2 µM (active) and the AC50 [7] was 34.9 µM (active).

For `COc1ccc(NS(=O)(=O)c2ccc(OC)c(NC(=O)CCC3CCCC3)c2)cc1`, the IC50 [11] was > 69.5 µM (inactive) and the IC50 [12] was > 69.5 µM (inactive).

For `C=CCn1c(SCC(=O)Nc2ncc(Cc3cc(C(F)(F)F)ccc3Cl)s2)nnc1-c1ccncc1`, the IC50 [14] was > 100 µM (not active).
